Consider three molecules from paper PMC12501029, “Discovery of a CNS active GSK3 degrader using orthogonally reactive linker screening” (Nature Communications, 2025).

≈ marks a conversion by molar mass, not a printed value. Like-named read-outs stand apart in the source and are kept apart here. Some results are limits rather than exact numbers.

The target in data set [1] is T1, GSK3β-HiBiT (GSK3β-HiBiT KI HEK293 cells) (Homo sapiens, UniProt P49841).
T1 construct: we generated endogenously tagged GSK3β-HiBiT knock-in (KI) HEK293 cells; endogenous in cells; host or cells: GSK3β-HiBiT knock-in HEK293 cells (CRISPR/Cas9, single-cell clone)
The experiment in a line: HiBiT lytic degradation assay / high-throughput screen, 24 h. Particulars: 24 h treatment; for DC50: pure (resynthesised, HPLC purified) compound. It is filed as cell-based. How it is done:
Crude compounds were assumed to be 10 mM concentration in DMSO and after generating libraries directly used in biological tests in degradation screens. Stock solutions were serially diluted into white bottom opaque 384-well plates (Perkin Elmer) using Echo500 (Labcyte) and DMSO was backfilled to maintain same DMSO content in each well for all concentrations. […] HiBiT lytic assay buffer (Promega) prepared according to the manufacturer’s instructions and added onto each well using Multidrop^TM Combi reagent dispenser. Luminescence signal was measured on PheraStar plate reader (BMG) and obtained data normalised to DMSO conditions using Excel and further analysed using GraphPad Prism (v10.1.2) and degradation curves were generated using 4-parameter non-linear regression fit to calculate DC50 and Dmax values. Data points associated with concentrations displaying a hook effect were excluded prior to DC50 and Dmax calculation.

The nature of data set [2]: RealSOL kinetic solubility. Conditions: PBS pH 7.4, 24 h, 25 °C; for solubility kinetic at 24 h: phosphate buffered saline, aqueous buffer, kinetic from dmso stock. The format is physicochemical. Here is the method: Solubility was assessed using an 'in-house' developed method known as 'RealSOL'. This solubility method measures the solubility in physiological strength phosphate buffered saline starting from 10 mM DMSO solutions of the test compounds. Although a 'kinetic'^[1] solubility method, the long shaking times appears to give solubility values that reflect more closely those made from solid samples when compared to a previous nephelometric method (unpublished in-house data).
Test compounds were dissolved in DMSO to give 10 mM solutions. Solubility test samples were prepared by adding a volume (5 µL) of the 10 mM solution to a volume (195 µL) of phosphate buffered saline, pH 7.4 (Sigma-Aldrich, Cat no. P4417, made as per manufacturer’s instructions). This solution was then mixed for 24 h (rotary mixing, 900 rpm, 25 °C) excluding light.
After mixing, the solubility test samples were filtered to remove any undissolved material using a proprietary filter (Millipore Multiscreen HTS filter, 96-well format). Samples were drawn through the filter using a vacuum.
The filtrate from the above was analysed for dissolved drug compound using a truncated UHPLC methodology. A Shimadzu Nexera X2 UHPLC system was used, with a reversed-phase column and a simple formic acid gradient elution. The UHPLC parameters are shown in Supporting Information Table 5.
A calibration solution was prepared in the following way: the same 10 mM solution used to prepare the solubility test sample was diluted in DMSO to give a 500 µM solution. This solution was then again diluted with 50:50 acetonitrile: water to give a 50 µM solution. Aliquots (0.2, 2.0 and 5.0 µL) of this 50 µM solution were then injected onto the UHPLC system and the areas of the resultant peaks integrated to produce a calibration line. Aliquots of the test sample filtrate (0.4 and 5.0 µL) were then injected onto the UHPLC system and the resultant peak areas for any peaks corresponding to the test compound determined and quantified using the calibration line (the injection volume that gave a peak area closest to the calibrated range was used for determining solubility).

Data set [3] in a line: Intrinsic clearance (Cli), human liver microsomes. The format is in vitro ADME. Conditions: 0.5 µM, scaling factor 40 mg microsomal protein per g liver. Here is the method: (§1) Test compound (0.5 µM) was incubated with female CD1 mouse, male rat Han Wistar and pooled human liver microsomes (Xenotech^TM; 0.5 mg/mL 50 mM potassium phosphate buffer, pH7.4) and the reaction started with addition of excess NADPH (8 mg/mL 50 mM potassium phosphate buffer, pH7.4). Immediately, at time zero, then at 3, 6, 9, 15 and 30 min an aliquot (50 µL) of the incubation mixture was removed and mixed with acetonitrile (100 uL) to stop the reaction. An internal standard was added to all samples, the samples centrifuged to sediment precipitated protein and the plates then sealed prior to UPLC-MSMS analysis (Xevo TQ-S Micro, Waters^TM). XLfit (IDBS, UK) was used to calculate the exponential decay and consequently the rate constant (k) from the ratio of peak area of test compound to internal standard at each timepoint. The rate of intrinsic clearance (CLi) of each test compound was then calculated using the following calculation:1 CLi(mL/min/gliver)=kxVxMicrosomalproteinyield Where V (mL/mg protein) is the incubation volume/mg protein added and microsomal protein yield is taken as 48 mg, 46 mg and 40 mg protein/g liver for mouse, rat and human, respectively. Verapamil (0.5 µM) was used as a positive control to confirm acceptable assay performance.

Data set [4] can be described thus: Intrinsic clearance (Cli), rat liver microsomes. It is filed as in vitro ADME. Conditions: 0.5 µM, scaling factor 46 mg microsomal protein per g liver. How it is done:
as §1
On the technique in general: Liver microsomes are vesicles of endoplasmic reticulum, rich in cytochrome P450 enzymes.

Data set [5] is described as follows: Brain binding, equilibrium dialysis. Particulars: brain tissue homogenate. It is filed as in vitro ADME. How it is done: As for plasma protein binding experiments, 96-well equilibrium dialysis apparatus was used to determine the free fraction in brain tissue homogenate for each compound (HT Dialysis LLC, Gales Ferry, CT). Membranes (12–14 kDA cut-off) were conditioned in deionised water for 60 min, followed by conditioning in 80:20 deionised water: ethanol for 20 min, and then rinsed in isotonic buffer before use. Frozen brain tissue was thawed and homogenised in artificial CSF at a ratio of 3:1. Homogenate was then spiked with test compound (final concentration 10 μg/mL), and 150 μL aliquots (n = 6 replicate determinations) loaded into the 96-well equilibrium dialysis plate. Dialysis vs artificial CSF was carried out for 5 h in a temperature-controlled incubator at ca. 37 °C (Barworld Scientific Ltd, UK) using an orbital microplate shaker at 100 revolutions/minute (Barworld Scientific Ltd, UK). 150 μL aliquots of spiked homogenate were stored at 37 °C and 4 °C for the course of the experiment to determine recovery. At the end of the incubation period, 50 μL aliquots of homogenate or buffer were transferred to a 96 deepwell plate (Waters^TM) and the composition in each was balanced with control fluid (50 μL), such that the volume of buffer to brain homogenate is the same. Sample extraction was performed by the addition of 200 μL of acetonitrile containing an appropriate internal standard. Samples were allowed to mix for 1 min and then centrifuged at 3000 rpm in 96-well blocks for 15 min (Allegra X12-R, Beckman Coulter, USA), after which 150 μL of supernatant was removed to 50 μL of water. All samples were analysed by UPLC-MS/MS. The unbound fraction was determined as the ratio of the peak area in buffer to that in homogenate using the following equation:2 Afu=Buffer/Matrix where Afu means apparent fraction unbound
Buffer = Analyte/IS ratio in buffer side […]
The recovery of the dialysed samples was calculated by comparing the sum of the peak areas (buffer and matrix) of any test compound at 37 °C to that of the same compound at 4 °C. […]
(In general: Equilibrium dialysis compares concentrations on both sides of a semipermeable membrane.)

Setting [6] is: HEK293, crude mixture, stock assumed 10 mM.
Where [7] appears, read: HEK293, pure (resynthesised, HPLC purified) compound.
[8] abbreviates: 10 μg/mL, 5 h dialysis, read-out: Brain Tissue Binding (Fu).

T1 sequence (P49841 whole entry): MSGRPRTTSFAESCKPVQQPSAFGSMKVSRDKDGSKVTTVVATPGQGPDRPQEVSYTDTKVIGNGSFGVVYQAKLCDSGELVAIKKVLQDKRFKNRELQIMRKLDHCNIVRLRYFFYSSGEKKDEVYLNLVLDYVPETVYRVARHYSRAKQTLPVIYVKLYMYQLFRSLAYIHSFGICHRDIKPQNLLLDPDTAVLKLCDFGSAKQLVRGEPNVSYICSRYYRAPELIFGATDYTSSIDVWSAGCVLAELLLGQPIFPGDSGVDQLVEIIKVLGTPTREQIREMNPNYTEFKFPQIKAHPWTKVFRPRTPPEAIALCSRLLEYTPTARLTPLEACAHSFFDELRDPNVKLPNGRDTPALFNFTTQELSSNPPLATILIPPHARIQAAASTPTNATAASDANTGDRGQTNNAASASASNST

As usually defined, the Dmax is the largest share of the target that was removed. What is called solubility (kinetic) is solubility judged after dilution from a stock solution rather than from solid. As to `O=C1CCC(NC(=O)c2ccc(CN3CCN(Cc4ccc(-c5cn(-c6ccc(-c7cn8nccc(C(=O)Nc9cnccc9N9CCOCC9)c8n7)cc6)nn5)nc4)CC3)cn2)C(=O)N1` (stereo not shown) [compound 22], the Dmax is 89% in data set [1] (setting [6]) and 87% in data set [1] (setting [7]). In data set [2], the kinetic solubility at 24 h is < 1 µM. The “Scaled Microsomal Stability HuClint” value in data set [3] was 3.6 ml/min/g liver. For the same molecule, the “Scaled Microsomal Stability RatClint” value in data set [4] came out at 0.71 ml/min/g liver. Moreover, the fraction unbound at 5 h, 10 μg/mL in data set [5] (setting [8]) worked out at 0.0029.
For `Cn1nc(N2CCC(=O)NC2=O)c2ccc(CN3CCN(Cc4ccc(-c5cn(-c6ccc(-c7cn8nccc(C(=O)Nc9cnccc9N9CCOCC9)c8n7)cc6)nn5)nc4)CC3)cc21` [compound 24], the Dmax in data set [1] (setting [6]) came to 91%. The Dmax in data set [1] (setting [7]) is 93%. The DC50 entry in data set [1] (listed as KH1 (24)) was “picomolar to single-digit nanomolar range”. Moreover, in data set [2], the RealSol result is “low micromolar range” and the kinetic solubility at 24 h came to 2.7 µM (≈ 2.43 µg/mL). The “Scaled Microsomal Stability HuClint” value in data set [3] was 0.88 ml/min/g liver. Further, the “Scaled Microsomal Stability RatClint” value in data set [4] is recorded as 0.51 ml/min/g liver. Besides, in data set [5] (brain binding, read-out: measured free fraction in brain), the fraction unbound at 5 h, 10 μg/mL was 0.0012.
In the case of `Cn1nc(N2CCC(=O)NC2=O)c2ccc(CN3CCN(CCCc4cn(-c5ccc(-c6cn7nccc(C(=O)Nc8cnccc8N8CCOCC8)c7n6)cc5)nn4)CC3)cc21` [compound 26], the Dmax in data set [1] (setting [6]) came to 78%. In data set [1] (setting [7]), the Dmax turned out to be 80%. For the same molecule, the DC50 entry in data set [1] (listed as KH2 (26)) is given as “picomolar to single-digit nanomolar range”. Besides, in data set [2], the RealSol result was “low micromolar range” and the kinetic solubility at 24 h was 2.3 µM (≈ 1.95 µg/mL). Also, in data set [3], the “Scaled Microsomal Stability HuClint” value was found to be 1.6 ml/min/g liver. The “Scaled Microsomal Stability RatClint” value in data set [4] is 1.3 ml/min/g liver. Moreover, the fraction unbound at 5 h, 10 μg/mL in data set [5] (setting [8]) came to 0.012.
